The results in this text go back to patent US9750788B2 (priority 2013, dated 2017).

≈ marks a conversion by molar mass, not a printed value. Square brackets hold non-standard residues; d marks the D form. Peptide text beside a SMILES is read from it. Aib = CC(C)(N)C(=O)O

The format of data set [1] is physicochemical. The conditions noted are these: buffer, 168 h. The source says:
The chemical stability is expressed as “% remaining peptide”.

Another data set can be described thus: physchem. It is filed as physicochemical.
In data set [2] the test system is blood glucose of diabetic db/db mice. The experiment in a line: Glucose lowering in female diabetic dbdb-mice. It is filed as in vivo. The settings on record: 100 μg/kg s.c. As to the method: Female diabetic dbdb-mice (BKS.Cg− +Leprdb/+Leprdb/OlaHsd) 10 weeks of age at study start were used. Mice were habituated to feeding and housing conditions for at least 2 weeks. 7 days prior to study start, HbA1c were determined to allocate mice to groups, aiming to spread low, medium and high HbA1c-values and in consequence the group-means (n=8), as equally as possible. On the day of study, food was removed, directly before sampling for baseline glucose assessment (t=0 min) Immediately afterwards, compounds or vehicle (phosphor buffered saline, PBS) were administered subcutaneously, 100 μg/kg, 10 ml/kg. Afterwards, blood samples were drawn by tail tip incision at 15, 30, 60, 90, 120, 150, 180, 240, 360, 480 min and 24 h. Food was re-offered after the 480 min-sampling. Data were analysed by 2-W-ANOVA on repeated measurements, followed by Dunnett's test as post-hoc assessment, level of significance p<0.05.

A further data set can be described thus: in vivo. The conditions noted are these: mouse, sc, 1 mg/kg.

Experimental for in vivo: Mice were dosed 1 mg/kg subcutaneously (s.c.). The mice were sacrificed and blood samples were collected after 0.25, 0.5, 1, 2, 4, 8, 16 and 24 hours post application. Plasma samples were analyzed after protein precipitation via liquid chromatography mass spectrometry (LC/MS). PK parameters and half-life were calculated using WinonLin Version 5.2.1 (non-compartment model).

As to `CC[C@H](C)[C@H](NC(=O)[C@H](Cc1ccccc1)NC(=O)[C@H](CC(C)C)NC(=O)[C@H](CCCNC(=N)N)NC(=O)[C@@H](NC(=O)[C@H](C)NC(=O)[C@H](CCC(=O)O)NC(=O)[C@H](CCC(=O)O)NC(=O)[C@H](CCC(=O)O)NC(=O)[C@H](CC(C)C)NC(=O)[C@H](CC(C)C)NC(=O)[C@H](CCCCN)NC(=O)[C@H](CO)NC(=O)[C@H](CC(C)C)NC(=O)[C@H](CC(=O)O)NC(=O)[C@H](CO)NC(=O)[C@@H](NC(=O)[C@H](Cc1ccccc1)NC(=O)[C@@H](NC(=O)CNC(=O)[C@H](CCC(=O)O)NC(=O)C(C)(C)NC(=O)[C@@H](N)Cc1ccc(O)cc1)[C@@H](C)O)[C@@H](C)O)C(C)C)C(=O)N[C@@H](CCC(=O)O)C(=O)N[C@@H](Cc1c[nH]c2ccccc12)C(=O)N[C@@H](CC(C)C)C(=O)N[C@@H](CCCCN)C(=O)N[C@@H](C)C(=O)NCC(=O)NCC(=O)N1CCC[C@H]1C(=O)N[C@@H](CO)C(=O)N[C@@H](CO)C(=O)NCC(=O)N[C@@H](C)C(=O)N1CCC[C@H]1C(=O)N1CCC[C@H]1C(=O)N1CCC[C@H]1C(=O)N[C@@H](CO)C(N)=O` [SEQ ID NO: 10, Y-Aib-EGTFTSDLSKLLEEEAVRLFIEWLKAGGPSSGAPPPS-NH2] (H-Y[Aib]EGTFTSDLSKLLEEEAVRLFIEWLKAGGPSSGAPPPS-NH2), in data set [1], the “Stability (pH 7.4), % remaining peptide” value is reported as 100%. For the same compound, the concentration in solution in the data set “physchem” (pH 7.4) (solubility at 2 h) came to 990 µg/mL (≈ 238 µM).

Take `CC[C@H](C)[C@H](NC(=O)[C@H](Cc1ccccc1)NC(=O)[C@H](CC(C)C)NC(=O)[C@H](CCCNC(=N)N)NC(=O)[C@@H](NC(=O)[C@H](C)NC(=O)[C@H](CCC(=O)O)NC(=O)[C@H](CCCCN)NC(=O)[C@H](CCC(=O)O)NC(=O)[C@H](CC(C)C)NC(=O)[C@H](CC(C)C)NC(=O)[C@H](CCCCN)NC(=O)[C@H](CO)NC(=O)[C@H](CC(C)C)NC(=O)[C@H](CC(=O)O)NC(=O)[C@H](CO)NC(=O)[C@@H](NC(=O)[C@H](Cc1ccccc1)NC(=O)[C@@H](NC(=O)CNC(=O)[C@H](CCC(=O)O)NC(=O)C(C)(C)NC(=O)[C@@H](N)Cc1ccc(O)cc1)[C@@H](C)O)[C@@H](C)O)C(C)C)C(=O)N[C@@H](CCC(=O)O)C(=O)N[C@@H](Cc1c[nH]c2ccccc12)C(=O)N[C@@H](CC(C)C)C(=O)N[C@@H](CCCCN)C(=O)N[C@@H](C)C(=O)NCC(=O)NCC(=O)N1CCC[C@H]1C(=O)N[C@@H](CO)C(=O)N[C@@H](CO)C(=O)NCC(=O)N[C@@H](C)C(=O)N1CCC[C@H]1C(=O)N1CCC[C@H]1C(=O)N1CCC[C@H]1C(=O)N[C@@H](CO)C(N)=O` [SEQ ID NO: 8, Y-Aib-EGTFTSDLSKLLEKEAVRLFIEWLKAGGPSSGAPPPS-NH2] (H-Y[Aib]EGTFTSDLSKLLEKEAVRLFIEWLKAGGPSSGAPPPS-NH2): in data set [1] (pH 4.5), the “Stability (pH 4.5), % remaining peptide” value is on record as 100%. Further, the “Stability (pH 7.4), % remaining peptide” value in data set [1] is listed as 100%. In addition, the concentration in solution in the data set “physchem” (pH 4.5) (solubility at 2 h) came to 320 µg/mL (≈ 76.9 µM). For the same compound, the solubility (usually the dissolved amount per volume that the medium holds) at 2 h in the data set “physchem” (pH 7.4) was 270 µg/mL (≈ 64.8 µM). Also, the “maximal effect, glucose reduction” value in data set [2] (at t=30 min) is approximately 13 mmol/L. In addition, the “reduction of glucose compared to vehicle control” value in data set [2] (from t=30 min to 24 h, p<0.05) is given as “statistical significant reduction of glucose”. For the same compound, in “in vivo”, the peak concentration (Cmax) – broadly, the maximum level reached in the sampled fluid or tissue – was 2980 ng/mL and the half-life – broadly, the time needed for the level to fall by half in the phase considered – was 1.9 h.
